System: multipotent stem cells
Assay: Nkx2-5-transfected multipotent stem cells cocultured with rat cardiomyocytes
Format: cell-based, human
Conditions: coculture with rat cardiomyocytes
Excerpt: Red=human specific Troponin I, Green=Human cells. Following transfection, multipotent stem cells were cocultured with rat cardiomyocytes that provide environmental signals to allow the transfected cells to develop properly.

Question: Which “biasing of differentiation (human specific Troponin I staining)” value does the source give for “Nkx2-5: developmental control gene Nkx2-5 (SEQ ID NO: 12) transfected into multipotent stem cells (DNA TGCTGGCATGTCCGCTGTCT; listed as DNA, chemistry not given here)” here?
Answer: biases the differentiation toward the development of cardiac cells

Source: patent US9127291B2, “Methods and products for biasing cellular development” (University of Central Florida Research Foundation, Inc., priority 2004, dated 2015)
